Results as given in PMC5591292, “Identification of Purple Acid Phosphatases in Chickpea and Potential Roles of CaPAP7 in Seed Phytate Accumulation” (Scientific Reports, 2017).

Biological target: T1, CaPAP7 (Cicer arietinum, UniProt A0A1S2YHG0)
T1 construct: gene PAP7; ORF PCR product of 1008 bp (about 335 residues) in pET28a, E. coli BL21(DE3) pLysS, Ni-NTA purified, ~38 kDa on SDS-PAGE; signal peptide predicted but protein cytoplasmic
T1 sequence (A0A1S2YHG0 1-335): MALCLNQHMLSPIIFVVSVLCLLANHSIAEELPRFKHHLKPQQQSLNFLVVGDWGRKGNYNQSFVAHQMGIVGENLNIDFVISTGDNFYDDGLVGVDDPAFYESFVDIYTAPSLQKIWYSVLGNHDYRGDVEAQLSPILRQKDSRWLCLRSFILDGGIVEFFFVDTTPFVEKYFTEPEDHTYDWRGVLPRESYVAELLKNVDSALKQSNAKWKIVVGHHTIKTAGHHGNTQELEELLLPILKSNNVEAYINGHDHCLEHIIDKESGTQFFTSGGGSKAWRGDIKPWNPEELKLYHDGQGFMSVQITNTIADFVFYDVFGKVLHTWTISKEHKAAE
Assay: phosphatase activity assay, […] min
Type: biochemical
Details: 10 mM substrate, 37 °C; maximum activity among substrates tested

Q: For `O=P(O)(O)O[C@H]1[C@H](OP(=O)(O)O)[C@@H](OP(=O)(O)O)[C@H](OP(=O)(O)O)[C@@H](OP(=O)(O)O)[C@H]1OP(=O)(O)O` [phytic acid], which “phosphatase activity assay, 30 min” value is on record?
A: it exhibited maximum catalytic activity for phytic acid
